Data published in patent publication US8329179B2, “Death domain containing receptor 4 antibodies and methods” (Human Genome Sciences, Inc., priority 1997, dated 2012).
Entries after “also recorded” stand apart in the source; their conditions may differ. Where a SMILES comes first, the peptide text is derived from it. The star is where a group is joined. Cbz = O=C(OCc1ccccc1)*; CH2F = FC*

Experiments:
[1] = system: TRAIL-induced apoptosis in MCF7 cells; test: Blocking of TRAIL-induced apoptosis in MCF7 cells by receptor-Fc fusions; format: cell-based, human; conditions: FIG. 6A
[2] = system: DR4-induced apoptosis; test: Cell death assay: DR4-induced apoptosis in cells transiently transfected with a DR4 expressing construct, with death protease inhibitors; format: cell-based, human; conditions: FIG. 5C
[3] = system: DR4-induced apoptosis in MCF7 human breast carcinoma cells and 293 human embryonic kidney cells; test: DR4-induced apoptosis cell death assay (transient transfection, X-Gal staining); format: cell-based; conditions: z-VAD-fmk added at 10 μM, 5 hrs after transfection; cells stained 32 hours following transfection
Protocol: Overexpression of Fas/APO-1 and TNFR-1 in mammalian cells mimics receptor activation (M. Muzio, et al., Cell 85, 817-827 (1996); M. P. Boldin, et al, Cell 85, 803-815 (1996)). Thus, this system was utilized to study the functional role of DR4. Transient expression of DR4 in MCF7 human breast carcinoma cells and 293 human embryonic kidney cells induced rapid apoptosis.
Cell death assays are performed essentially as previously described (A. M. Chinnaiyan, et al., Cell 81, 505-12 (1995); M. P. Boldin, et al, J Biol Chem 270, 7795-8 (1995); F. C. Kischkel, et al., EMBO 14, 5579-5588 (1995); A. M. Chinnaiyan, et al., J Biol Chem 271, 4961-4965 (1996)). Briefly, MCF-7 human breast carcinoma clonal cell lines stably transfected with either vector alone or a CrmA expression construct (M. Tewari, et al., J Biol Chem 270, 3255-60 (1995)), are transiently transfected with pCMV-DR4-galactosidase (or pCMV-DR4-galactosidase (lacking the death domain)) in the presence of a ten-fold excess of pcDNA3 expression constructs encoding the indicated proteins using lipofectamine (GIBCO-BRL). 293 cells are likewise transfected using the CaPO4 method. The ICE family inhibitor z-VAD-fmk (Enzyme Systems Products, Dublin, Calif.) is added to the cells at a concentration of 10 μM, 5 hrs after transfection. […]

Molecule	Blocking of the ability of TRAIL to induce apoptosis [1]	Blocking of DR4-induced apoptosis [2]	Blocking of DR4-induced apoptosis ([2]; listed as z-VAD-fink)	DR4-induced apoptosis [3]
CD95-Fc: extracellular domain of CD-95 expressed as Fc fusion	not influenced			
COC(=O)C[C@H](NC(=O)[C@H](C)NC(=O)[C@@H](NC(=O)OCc1ccccc1)C(C)C)C(=O)CF [z-VAD-fmk] (Cbz-Val-Ala-Asp(OMe)-CH2F)		inhibit the apoptotic action of DR4; also recorded: efficiently blocked	blocked	blocked
